Reference: patent publication US20210059959A1, “USE OF CANNABINOIDS IN THE TREATMENT OF MENTAL DISORDERS” (GW Pharma Limited, priority 2015, published 2021)

Test system: participants with schizophrenia or related psychotic disorder
Test: Scale for the Assessment of Negative Symptoms (SANS), double-blind placebo-controlled study of CBD as adjunctive therapy
Assay type: in vivo, human
Method: Example 1 below describes the use of a highly purified cannabis extract comprising cannabidiol (CBD) in a human clinical trial. Example 1 describes data produced in a double-blind, randomised, placebo-controlled, parallel group study of highly purified CBD as adjunctive therapy in first line treatment of schizophrenia or related psychotic disorder.
An eight-week, multi-centre, double-blind, randomised, placebo-controlled, parallel group study was conducted with the aim to determine the efficacy, safety and tolerability of highly purified CBD as adjunctive therapy in first line treatment of schizophrenia or related psychotic disorder.
This study evaluated the efficacy of highly purified CBD compared with placebo on the participant's PANSS Total score, ‘P’, ‘N’, ‘G’, SANS and BACS scores.
Changes from baseline in PANSS scores (Total, ‘P’, ‘N’ and ‘G’), SANS and BACS were recorded at the start of the study (baseline) and at the end of treatment (after 6 weeks treatment with CBD or placebo).
For inclusion in the study participants were required to be male or female aged 18 to 65 years, diagnosed with schizophrenia or a related psychotic disorder (such as schizoaffective or schizophreniform disorder) as defined by the Diagnostic and Statistical Manual of Mental Disorders Version 4. Participants must have been treated for a minimum of four-weeks and be on a stable dose of their current antipsychotic medication. […] A PANSS score in excess of 60 infers that the patient has symptoms related to schizophrenia or related disorders.
The participants were randomised to one of two treatment groups which each consisted of 39 participants. Treatment was administered as either 5 ml CBD (100 mg/ml) oral solution to be taken twice daily or 5 ml matched placebo oral solution to be taken twice daily.
Scale for the Assessment of Negative Symptoms (SANS)
SANS assesses five symptom complexes to obtain clinical ratings of negative symptoms in participants with schizophrenia or related psychotic disorder. They are: affective blunting; alogia (impoverished thinking); avolition/apathy; anhedonia/asociality; and disturbance of attention.
Assessments are conducted on a six-point scale (0=not at all to 5=severe). This scale was measured at each assessment visit (Visit 1-4)

[1] = CBD adjunct, 6 weeks, all patients
[2] = CBD adjunct, 6 weeks, patients on amisulpride
[3] = CBD adjunct, 6 weeks, patients on aripiprazole
[4] = CBD adjunct, 6 weeks, patients on olanzapine
[5] = CBD adjunct, 6 weeks, patients on other antipsychotics
[6] = CBD adjunct, 6 weeks, patients on quetiapine
[7] = CBD adjunct, 6 weeks, patients on risperidone

C=C(C)[C@@H]1CCC(C)=C[C@H]1c1c(O)cc(CCCCC)cc1O [CBD, Cannabidiol]
Change in baseline scores, SANS question 15: Impersistence at work or school [1]: −0.5 | Change in baseline scores, SANS question 18: Recreational interests and activity [1]: −0.6 | Change in baseline scores, SANS question 19: Sexual interest and activity [1]: −0.4 | Change in baseline scores, SANS question 20: Ability to feel closeness and intimacy [1]: −0.3 | Change in baseline scores, SANS question 21: Relationships with friends and peers [1]: −0.3 | Change in baseline scores, SANS question 22: Global rating of anhedonia [1]: −0.3 | Change in baseline scores, SANS question 23: Social inattentiveness [1]: −0.5 | Change in baseline scores, SANS question 24: Inattentiveness during mental status testing [1]: −0.6 | Change in baseline scores, SANS question 25: Global rating of attention [1]: −0.5 | Change in baseline scores, SANS sub-scale 4 (anhedonia/asociality) [1]: −1.9 | Change in baseline scores, SANS sub-scale 5 (disturbance of attention) [1]: −1.6 | Change in baseline scores, SANS total score [1]: −9.5 | Change in baseline scores, SANS question 15: Impersistence at work or school [2]: −0.5 | Change in baseline scores, SANS question 18: Recreational interests and activity [2]: 0.0 | Change in baseline scores, SANS question 19: Sexual interest and activity [2]: 0.0 | Change in baseline scores, SANS question 20: Ability to feel closeness and intimacy [2]: −0.1 | Change in baseline scores, SANS question 21: Relationships with friends and peers [2]: −0.1 | Change in baseline scores, SANS question 22: Global rating of anhedonia [2]: −0.1 | Change in baseline scores, SANS question 23: Social inattentiveness [2]: −0.1 | Change in baseline scores, SANS question 24: Inattentiveness during mental status testing [2]: −0.8 | Change in baseline scores, SANS question 25: Global rating of attention [2]: 0.0 | Change in baseline scores, SANS score [2]: −2.4 | Change in baseline scores, SANS sub-scale 4 (anhedonia/asociality) [2]: −0.1 | Change in baseline scores, SANS sub-scale 5 (disturbance of attention) [2]: −1.0 | Change in baseline scores, SANS question 15: Impersistence at work or school [3]: −0.3 | Change in baseline scores, SANS question 18: Recreational interests and activity [3]: −0.1 | Change in baseline scores, SANS question 19: Sexual interest and activity [3]: −0.1 | Change in baseline scores, SANS question 20: Ability to feel closeness and intimacy [3]: 0.0 | Change in baseline scores, SANS question 21: Relationships with friends and peers [3]: −0.1 | Change in baseline scores, SANS question 22: Global rating of anhedonia [3]: 0.0 | Change in baseline scores, SANS question 23: Social inattentiveness [3]: −0.4 | Change in baseline scores, SANS question 24: Inattentiveness during mental status testing [3]: −0.5 | Change in baseline scores, SANS question 25: Global rating of attention [3]: −0.4 | Change in baseline scores, SANS score [3]: −4.7 | Change in baseline scores, SANS sub-scale 4 (anhedonia/asociality) [3]: −0.2 | Change in baseline scores, SANS sub-scale 5 (disturbance of attention) [3]: −1.3 | Change in baseline scores, SANS question 15: Impersistence at work or school [4]: −1.2 | Change in baseline scores, SANS question 18: Recreational interests and activity [4]: −1.3 | Change in baseline scores, SANS question 19: Sexual interest and activity [4]: −1.0 | Change in baseline scores, SANS question 20: Ability to feel closeness and intimacy [4]: −1.0 | Change in baseline scores, SANS question 21: Relationships with friends and peers [4]: −0.6 | Change in baseline scores, SANS question 22: Global rating of anhedonia [4]: −0.8 | Change in baseline scores, SANS question 23: Social inattentiveness [4]: −0.9 | Change in baseline scores, SANS question 24: Inattentiveness during mental status testing [4]: −0.7 | Change in baseline scores, SANS question 25: Global rating of attention [4]: −0.9 | Change in baseline scores, SANS score [4]: −20.5 | Change in baseline scores, SANS sub-scale 4 (anhedonia/asociality) [4]: −4.9 | Change in baseline scores, SANS sub-scale 5 (disturbance of attention) [4]: −2.5 | Change in baseline scores, SANS question 18: Recreational interests and activity [5]: −0.4 | Change in baseline scores, SANS question 19: Sexual interest and activity [5]: −0.3 | Change in baseline scores, SANS question 20: Ability to feel closeness and intimacy [5]: −0.1 | Change in baseline scores, SANS question 21: Relationships with friends and peers [5]: −0.2 | Change in baseline scores, SANS question 22: Global rating of anhedonia [5]: −0.2 | Change in baseline scores, SANS question 23: Social inattentiveness [5]: −0.9 | Change in baseline scores, SANS question 24: Inattentiveness during mental status testing [5]: −1.3 | Change in baseline scores, SANS question 25: Global rating of attention [5]: −0.3 | Change in baseline scores, SANS score [5]: −10.6 | Change in baseline scores, SANS sub-scale 4 (anhedonia/asociality) [5]: −1.2 | Change in baseline scores, SANS sub-scale 5 (disturbance of attention) [5]: −2.5 | Change in baseline scores, SANS question 18: Recreational interests and activity [6]: −1.3 | Change in baseline scores, SANS question 19: Sexual interest and activity [6]: −1.5 | Change in baseline scores, SANS question 20: Ability to feel closeness and intimacy [6]: −0.4 | Change in baseline scores, SANS question 21: Relationships with friends and peers [6]: −0.7 | Change in baseline scores, SANS question 22: Global rating of anhedonia [6]: −1.3 | Change in baseline scores, SANS question 23: Social inattentiveness [6]: −0.6 | Change in baseline scores, SANS question 24: Inattentiveness during mental status testing [6]: −0.9 | Change in baseline scores, SANS question 25: Global rating of attention [6]: −0.5 | Change in baseline scores, SANS score [6]: −10.4 | Change in baseline scores, SANS sub-scale 4 (anhedonia/asociality) [6]: −5.1 | Change in baseline scores, SANS sub-scale 5 (disturbance of attention) [6]: −1.8 | Change in baseline scores, SANS question 15: Impersistence at work or school [7]: −0.3 | Change in baseline scores, SANS question 18: Recreational interests and activity [7]: −0.3 | Change in baseline scores, SANS question 19: Sexual interest and activity [7]: 0.0 | Change in baseline scores, SANS question 20: Ability to feel closeness and intimacy [7]: 0.0 | Change in baseline scores, SANS question 21: Relationships with friends and peers [7]: −0.1 | Change in baseline scores, SANS question 22: Global rating of anhedonia [7]: −0.2 | Change in baseline scores, SANS question 23: Social inattentiveness [7]: 0.2 | Change in baseline scores, SANS question 24: Inattentiveness during mental status testing [7]: −0.1 | Change in baseline scores, SANS question 25: Global rating of attention [7]: 0.0 | Change in baseline scores, SANS score [7]: −3.6 | Change in baseline scores, SANS sub-scale 4 (anhedonia/asociality) [7]: −0.4 | Change in baseline scores, SANS sub-scale 5 (disturbance of attention) [7]: 0.1 | Change in baseline scores, SANS question 15: Impersistence at work or school: difference (CBD vs placebo, all patients, P = 0.0187): (−0.4)
